The values below come from PubChem BioAssay (NCI).

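Dose response: 5 concentrations. Exposure: 48 h. Format: 96-well plates. Endpoint: linear interpolation; highest concentration if not reached. The concentration for 50% growth inhibition is given as GI50. TGI denotes the concentration required for complete inhibition of growth.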

Among the test systems are U251 CNS; PC-3 prostate; OVCAR-4 ovarian; IGROV1 ovarian; HCC-2998 colon; SK-MEL-5 melanoma; 786-0 renal; CAKI-1 renal; OVCAR-3 ovarian; MDA-MB-435.
Holding throughout (test): DTP human tumour cell line panel, 48 h

Turning to `Nc1c(C(=O)Nc2ccccn2)sc2nc3c(cc12)C(=O)CCC3`, the GI50 (commonly the concentration giving 50% growth inhibition) is 1.34 µM in the test on U251 CNS; 1.43 µM with PC-3 prostate; 6.26 µM in the test with OVCAR-4 ovarian; 2.23 µM in the test with IGROV1 ovarian; 3.15 µM with HCC-2998 colon; 0.444 µM in the test on SK-MEL-5 melanoma. For the same compound, the figures for the GI50 in the test with 786-0 renal, in the test on CAKI-1 renal and in the test with OVCAR-3 ovarian were 1.33 µM, 0.697 µM and 0.792 µM, respectively. The TGI in the test on U251 CNS, with PC-3 prostate, in the test with OVCAR-4 ovarian, in the test with IGROV1 ovarian, in the test with HCC-2998 colon and in the test with SK-MEL-5 melanoma was above 100 µM throughout. The values for the concentration for total growth inhibition (TGI) in the test on 786-0 renal, in the test with CAKI-1 renal and in the test with OVCAR-3 ovarian were 44.6 µM, above 100 µM and 14.7 µM, respectively.
Take `CSC[C@H](NC(=O)COc1cccc2cnccc12)C(=O)NC(Cc1ccccc1)C(O)C(=O)N1CSC[C@H]1C(=O)NC(C)(C)C` (some centres undefined): the concentration for total growth inhibition (TGI) with U251 CNS, in the test on PC-3 prostate, in the test on OVCAR-4 ovarian, in the test with IGROV1 ovarian, in the test with HCC-2998 colon and in the test on MDA-MB-435 was above 100 µM each time. The TGI in the test with 786-0 renal and in the test with OVCAR-3 ovarian was above 100 µM each time.
Consider `NC(N)=Nc1nc2ccccc2o1`, for which the GI50 in the test on U251 CNS, in the test on PC-3 prostate, in the test on OVCAR-4 ovarian, in the test with IGROV1 ovarian, in the test with SK-MEL-5 melanoma and in the test with MDA-MB-435 was above 100 µM in each case. Moreover, the GI50 in the test on 786-0 renal, with CAKI-1 renal and in the test with OVCAR-3 ovarian was above 100 µM throughout. In addition, the concentration for total growth inhibition (TGI) in the test on U251 CNS, in the test with PC-3 prostate, with OVCAR-4 ovarian, in the test on IGROV1 ovarian, in the test with SK-MEL-5 melanoma and in the test on MDA-MB-435 was above 100 µM throughout. The concentration for total growth inhibition (TGI) with 786-0 renal, in the test on CAKI-1 renal and in the test with OVCAR-3 ovarian was above 100 µM each time.
Take `C=C(C)[C@@H]1CC[C@]2(CN)CC[C@]3(C)[C@H](CC[C@@H]4[C@@]5(C)CCCNC(C)(C)[C@@H]5CC[C@]43C)[C@@H]12`: the GI50 in the test on U251 CNS was 1.8 µM; with PC-3 prostate, 1.77 µM; in the test on IGROV1 ovarian, 1.82 µM; in the test on SK-MEL-5 melanoma, 1.56 µM; with MDA-MB-435, 1.6 µM; in the test on 786-0 renal it was 1.74 µM. Also, the GI50 in the test with CAKI-1 renal was 1.66 µM. Further, the TGI (usually the concentration giving total growth inhibition) amounted to 3.33 µM with U251 CNS; 3.2 µM in the test with PC-3 prostate; 3.57 µM in the test with IGROV1 ovarian; 3 µM with SK-MEL-5 melanoma; 2.98 µM with MDA-MB-435; 3.57 µM in the test on 786-0 renal. Moreover, in the test with CAKI-1 renal, the total growth inhibition concentration (TGI) was found to be 3.02 µM.
On to `CCSc1nc(N=Cc2ccccc2O)c2cn[nH]c2n1`, for which the GI50 in the test on U251 CNS is 44.4 µM; in the test on PC-3 prostate, 28 µM; in the test with OVCAR-4 ovarian, 35 µM; with IGROV1 ovarian it was 40.9 µM; with SK-MEL-5 melanoma it was 23.8 µM; with MDA-MB-435, 19.7 µM. The GI50 in the test on 786-0 renal is 41.8 µM; in the test on CAKI-1 renal, 19.3 µM; in the test on OVCAR-3 ovarian it was 13.8 µM. Moreover, the TGI in the test on U251 CNS is above 100 µM; with PC-3 prostate, 72.7 µM; in the test with OVCAR-4 ovarian, above 100 µM; in the test on IGROV1 ovarian, above 100 µM; in the test on SK-MEL-5 melanoma, 65.9 µM; in the test on MDA-MB-435, 72.8 µM. Moreover, the TGI is above 100 µM with 786-0 renal, 82.4 µM in the test with CAKI-1 renal and 61.2 µM in the test with OVCAR-3 ovarian.
`CCN(CCNS(C)(=O)=O)c1ccc(N)c(C)c1`: the GI50 is 18.1 µM in the test on U251 CNS; 6.39 µM in the test with OVCAR-4 ovarian; 4.3 µM with IGROV1 ovarian; 16.8 µM with HCC-2998 colon; 11.9 µM with SK-MEL-5 melanoma; 2.75 µM with MDA-MB-435. For the same compound, the GI50 with 786-0 renal was 9.76 µM; in the test on CAKI-1 renal, 2.54 µM; in the test on OVCAR-3 ovarian, 3.15 µM. Also, the concentration for total growth inhibition (TGI) with U251 CNS turned out to be 32.5 µM; in the test with OVCAR-4 ovarian, 19.4 µM; in the test with IGROV1 ovarian it was 13.4 µM; in the test with HCC-2998 colon it was 33.9 µM; in the test on SK-MEL-5 melanoma, 24.6 µM; in the test with MDA-MB-435 it was 6.91 µM. Moreover, the values for the concentration for total growth inhibition (TGI) in the test on 786-0 renal, with CAKI-1 renal and with OVCAR-3 ovarian were 21.9 µM, 6.78 µM and 8.58 µM, respectively.
Consider `O=[N+]([O-])c1cccnc1N=Nc1c(O)[nH]c2ccccc12`, for which the TGI is above 100 µM in the test with U251 CNS; 63 µM with PC-3 prostate; 73 µM in the test on OVCAR-4 ovarian; 53.9 µM in the test on IGROV1 ovarian; above 100 µM with MDA-MB-435; 52 µM with 786-0 renal. This compound also yielded a concentration for total growth inhibition (TGI) with OVCAR-3 ovarian above 100 µM.
For the compound `O=C(CNc1ccc(Cl)cc1Cl)Nn1c(-c2ccccc2)nc2ccccc2c1=O`, the concentration for total growth inhibition (TGI) in the test on PC-3 prostate stood at 29.9 µM; in the test with OVCAR-4 ovarian it was 32.2 µM; in the test on IGROV1 ovarian, 42.2 µM; in the test on HCC-2998 colon, 31.8 µM; in the test on SK-MEL-5 melanoma, 18.5 µM; in the test with MDA-MB-435 it was 30.2 µM. For the same compound, the TGI in the test on 786-0 renal was determined as 35.1 µM; in the test on OVCAR-3 ovarian, 31.3 µM.
